This note sets out measurements from patent US20040248967A1, “Promoter for production of nitric oxide or nitric oxide synthase, and cosmetic or pharmaceutical composition comprising the same” (AJINOMOTO CO., INC., priority 2001, published 2004).

Holding throughout (type): cell-based
One test deals with Angioendothelial cells. Kind of test: Nitric oxide production in cultured angioendothelial cells (Griess method). Particulars: for Formed amount of nitric oxide: 24 hours after addition, L-Arg, L-PCA, GA concentrations (mM) in the medium differ per Example as in Table 1, medium without L-arginine. The method, then: Angioendothelial cells were cultured using a DMEM medium (Dulbecco-modified MEM) containing 10% fetal bovine serum (FBS). However, phenol red and L-arginine were not added to the medium. The cells were cultured in the medium for 24 hours. After 24 hours of the culture, L-2-pyrrolidone-5-carboxylic acid and L-arginine were added to the medium, the amounts to be added being different for each Example and Comparative Example, as shown in Table 1 below. The culture was further continued for 24 hours.
Thereafter, the produced amount of the nitric oxide was determined by measuring the nitrogen dioxide in the culture supernatant. Nitrogen dioxide was measured by Griess method. The number of the cells in the culture liquid were measured and the formed amount of the nitric oxide per 10^3 cells was expressed in terms of nmol. By the way, as negative controls, the example wherein neither arginine nor pyrrolidonecarboxylic acid was contained (Comparative Example 1) and the example wherein arginine was contained singly (Comparative Example 2) were used. Moreover, as a positive control, the example wherein arginine and glycolic acid were contained (Comparative Example 3) was used.

In a further test the test system is cNOS. Kind of test: RT-PCR of cNOS messenger RNA in angioendothelial cells. Conditions: 24 hours; for Expressed amount of cNOS (Relative ratio): messenger RNA by RT-PCR. As to the method:
(§1) Angioendothelial cells were cultured using a DMEM medium (Dulbecco-modified MEM) containing 10% fetal bovine serum (FBS). The cells were cultured in the medium for 24 hours. After 24 hours of the culture, the cells were further cultured in the medium to which L-pyrrolidonecarboxylic acid was added so as to achieve a predetermined concentration (See Table 3 given later) for 24 hours, and then the RNA was extracted. For reverse transcription of the RNA, a kit for reverse transcription (manufactured by GIBCO) was used to prepare the cDNA. The cDNA was then subjected to PCR (RT-PCR). Forty cycles of the PCR were carried out under the conditions of denaturing at 95° C. for 30 seconds, annealing at 59° C. for 60 seconds, and extension at 73° C. for 90 seconds.
(§2) As has been described above, using RT-PCR, the expressed amounts of the messenger RNA's of cNOS and iNOS were determined. In this experiment, cNOS was detected, but iNOS was not detected. […] In the table, L-PCA means L-pyrrolidonecarboxylic acid.

Another test relates to iNOS. Description: RT-PCR of iNOS messenger RNA in angioendothelial cells. Conditions: L-PCA 1.0-10.0 mM, 24 hours, RT-PCR 40 cycles. The method, then:
as §1, §2

For `N=C(N)NCCC[C@H](N)C(=O)O` [Comparative Example 2, L-arginine, reference compound], the “Formed amount of nitric oxide” value in the test with Angioendothelial cells is 1.9 nmol/10^3 cells.
Turning to `O=C1CC[C@@H](C(=O)O)N1` [Example 1, L-2-pyrrolidone-5-carboxylic acid], the “Formed amount of nitric oxide” value with Angioendothelial cells was 1.4 nmol/10^3 cells.
With `O=C1CC[C@@H](C(=O)O)N1` [L-PCA, L-2-pyrrolidone-5-carboxylic acid], the “promoting effect on the production of nitric oxide (in words)” value in the test on Angioendothelial cells (angioendothelial cells, 24 hours, comparison at 10 mM of added compound) is “exhibited a promoting effect on the production of nitric oxide”. Besides, in the test on cNOS (1.0-10.0 mM, RT-PCR), the “amount of cNOS depending on the amount of pyrrolidonecarboxylic acid added (in words)” value is “tended to increase”. Also, the “Expressed amount of cNOS (Relative ratio)” value in the test on cNOS (L-PCA added 1.0 mM) is 1.00; with cNOS (L-PCA added 2.5 mM), 1.25; in the test with cNOS (L-PCA added 5.0 mM), 1.40; with cNOS (L-PCA added 10.0 mM) it was 1.75. Further, in the test on iNOS, the “expressed amount of messenger RNA of iNOS (detection)” value was “not detected”.
